Earlier results on one compound are cited in patent US20060147533A1, “Antimicrobial biomaterial for blood bags” (priority 2004, published 2006).

The conditions of this series: humans; recoveries reported following ingestion of higher doses.

As for `O=[N+]([O-])[O-].[Ag+]` [silver nitrate], the estimated fatal dose is recorded as 10 grams.
